Where two headings read alike, the source gives them in different places.
Assays:
hM1 mAChR = target: T1, hM1 mAChR (Homo sapiens, UniProt P11229); assay: IP1 accumulation assay (ACh concentration-response curves in absence or presence of modulator); type: cell-based; conditions: for activation at 1 µM: read-out: Δbaseline [1 μM]: change in basal response in presence of M1 PAM compared to control curve; for activation at 10 µM: read-out: Δbaseline [10 μM]: change in basal response in presence of M1 PAM compared to control curve; for αβ (functional cooperativity with ACh) / τB (intrinsic efficacy of the modulator) / log τB (logarithm of intrinsic efficacy of the modulator) / log αβ (logarithm of functional cooperativity between ACh and modulator): IP1 accumulation; for αβ (functional cooperativity with ACh) / τB (intrinsic efficacy of the modulator): antilog, in parentheses; for log τB (logarithm of intrinsic efficacy of the modulator) / log αβ (logarithm of functional cooperativity between ACh and modulator): operational model; for log αβ (logarithm of functional cooperativity between ACh and modulator): pKB constrained to binding value
T1 construct: expressed in transfected cells
T1 sequence (P11229 1-460): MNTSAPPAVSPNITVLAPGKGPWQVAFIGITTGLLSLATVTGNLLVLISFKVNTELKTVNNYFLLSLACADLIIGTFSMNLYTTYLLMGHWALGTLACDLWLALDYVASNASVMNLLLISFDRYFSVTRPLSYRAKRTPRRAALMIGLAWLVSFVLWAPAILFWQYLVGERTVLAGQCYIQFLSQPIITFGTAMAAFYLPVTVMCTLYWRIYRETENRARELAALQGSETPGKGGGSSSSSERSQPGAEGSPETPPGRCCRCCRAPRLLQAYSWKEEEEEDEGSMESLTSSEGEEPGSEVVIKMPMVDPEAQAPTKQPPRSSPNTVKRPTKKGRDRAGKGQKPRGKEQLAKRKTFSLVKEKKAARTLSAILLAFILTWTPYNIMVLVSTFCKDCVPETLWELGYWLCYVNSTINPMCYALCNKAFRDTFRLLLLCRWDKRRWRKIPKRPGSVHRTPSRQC

in vivo = conditions: male, C57Bl/6 J, mouse, 10 mg/kg
Method: The study was performed using 10–12 weeks old male C57Bl/6 J naïve mice in accordance with the Australian Code of Practice for the Care and Use of Animals for Scientific Purposes, with procedures approved by the Animal Ethics Committee of the Monash Institute of Pharmaceutical Sciences.

M1 mAChR = target: T2, M1 mAChR (Homo sapiens, UniProt P11229); design: method as in PMID 24051397; conditions: ref 10a; cited from earlier work
T2 construct: expressed in transfected cells; host or cells: parental FlpIn CHO cells (transient, PEI)
T2 sequence (P11229 1-460): T1 sequence (P11229 1-460)

[1] = 1 μM modulator, FlpIn CHO hM1 cells, mean ± SEM, 3 experiments
[2] = 10 μM modulator, FlpIn CHO hM1 cells, mean ± SEM, 3 experiments

SMILES | ΔpEC50 [1 μM]: change in ACh pEC50 in presence of M1 PAM compared to control curve (hM1 mAChR; [1]) | activation at 1 µM (hM1 mAChR; [1]) [%] | ΔpEC50 [10 μM]: change in ACh pEC50 in presence of M1 PAM compared to control curve (hM1 mAChR; [2]) | activation at 10 µM (hM1 mAChR; [2]) [%] | αβ (functional cooperativity with ACh) (hM1 mAChR) | τB (intrinsic efficacy of the modulator) (hM1 mAChR) | log τB (logarithm of intrinsic efficacy of the modulator) (hM1 mAChR) | log αβ (logarithm of functional cooperativity between ACh and modulator) (hM1 mAChR) | concentration at 90 min (in vivo; brain, intraperitoneal) [nM] | activation at 1 µM (hM1 mAChR) [%] | activation at 10 µM (hM1 mAChR) [%] | increase in binding cooperativity with ACh (αACh) compared to MIPS1650 (1) (M1 mAChR) | increase in intrinsic efficacy (τB) compared to MIPS1650 (1) (M1 mAChR) [fold] | Kp (in vivo; brain/plasma, ip) | Kp uu (in vivo; brain/plasma, ip)
Cn1cc(-c2ccc(COc3ncccc3-c3ccn(C4CCCCC4O)c(=O)c3)cc2)cn1 (centres unmarked) [Compound 7f, 1’-(2-Hydroxycyclohexyl)-2-((4-(1-methyl-1H-pyrazol-4-yl)benzyl)oxy)-[3,4’-bipyridin]-2’(1’H)-one] | 0.76±0.07 | 4.8 ± 1.9 | 1.41±0.10 | 20.5 ± 2.5 | 316 | 4 | 0.56±0.05 | 2.50±0.08 | 100 | – | – | – | – | – | –
CN(C)C(=O)Cn1ccc(-c2ccccc2OCc2ccc(-c3cnn(C)c3)cc2)cc1=O [Compound 13c, N,N-Dimethyl-2-(4-(2-((4-(1-methyl-1H-pyrazol-4-yl)benzyl)oxy)phenyl)-2-oxopyridin-1(2H)-yl)acetamide] | 0.73±0.08 | 2.1 ± 2.1 | 1.33±0.17 | 63.6 ± 2.3 | 118 | 3 | 0.45±0.03 | 2.07±0.08 | – | – | – | – | – | – | –
Cn1cc(-c2ccc(COc3ccccc3-c3cc(=O)n(C4CCCCC4O)cn3)cc2)cn1 (centres unmarked) [Compound 2, 3-(2-Hydroxycyclohexyl)-6-(2-((4-(1-methyl-1H-pyrazol-4-yl)benzyl)oxy)phenyl)pyrimidin-4(3H)-one] | 1.52±0.14 | – | 1.28±0.42 | – | 363 | 6 | 0.78±0.02 | 2.56±0.07 | – | 55.1 ± 2.4 | 85.3 ± 2.4 | fourfold increase | 11 | < 0.1 | < 0.1

From paper PMC7616174, “Development of Novel 4-Arylpyridin-2-one and 6-Arylpyrimidin-4-one Positive Allosteric Modulators of the M1 Muscarinic Acetylcholine Receptor” (ChemMedChem, 2020)
